Experimental data from US10632119B2, “Fused bicyclic 2,4-diaminopyrimidine derivative as a dual ALK and FAK inhibitor” (priority 2012, dated 2020).

Assays:
Mouse bioavailability = format: in vivo
CYP 2D6 = CYP 2D6 (Homo sapiens, UniProt P10635); assay: CYP inhibition; format: in vitro ADME
DA transporter = DA transporter (Homo sapiens, UniProt Q01959); assay: Receptor selectivity (Cerep); format: binding
Histamine H2 = Histamine H2 (Homo sapiens, UniProt P25021); assay: Receptor selectivity (Cerep); format: binding
[1] = system: Sup-M2 ALCL tumor xenografts; assay: Anti-tumor efficacy, NPM-ALK positive Sup-M2 ALCL xenograft; conditions: for anti-tumor efficacy: 12 days
Method: Anti-Tumor Efficacy Studies—General Protocol
The tumor volumes were then calculated with the formula of 0.5236*L*W*(L+W)/2.
Anti-Tumor Efficacy in NPM-ALK Positive Sup-M2 and Karpas-299 ALCL Tumor Xenograft Models in Mice

[2] = bid or qd oral dosing at 10 and 30 mg/kg

Histamine H2, sequence (P25021 whole entry): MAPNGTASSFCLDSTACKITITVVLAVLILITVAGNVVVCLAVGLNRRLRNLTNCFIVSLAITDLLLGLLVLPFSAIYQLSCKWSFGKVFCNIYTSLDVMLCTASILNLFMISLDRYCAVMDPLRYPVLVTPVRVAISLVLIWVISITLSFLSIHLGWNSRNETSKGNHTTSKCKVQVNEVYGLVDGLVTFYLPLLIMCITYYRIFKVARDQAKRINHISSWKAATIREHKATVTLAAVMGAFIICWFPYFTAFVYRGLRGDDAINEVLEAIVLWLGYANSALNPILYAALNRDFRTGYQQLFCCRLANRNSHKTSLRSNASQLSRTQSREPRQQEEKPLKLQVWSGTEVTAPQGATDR
CYP 2D6, sequence (P10635 whole entry): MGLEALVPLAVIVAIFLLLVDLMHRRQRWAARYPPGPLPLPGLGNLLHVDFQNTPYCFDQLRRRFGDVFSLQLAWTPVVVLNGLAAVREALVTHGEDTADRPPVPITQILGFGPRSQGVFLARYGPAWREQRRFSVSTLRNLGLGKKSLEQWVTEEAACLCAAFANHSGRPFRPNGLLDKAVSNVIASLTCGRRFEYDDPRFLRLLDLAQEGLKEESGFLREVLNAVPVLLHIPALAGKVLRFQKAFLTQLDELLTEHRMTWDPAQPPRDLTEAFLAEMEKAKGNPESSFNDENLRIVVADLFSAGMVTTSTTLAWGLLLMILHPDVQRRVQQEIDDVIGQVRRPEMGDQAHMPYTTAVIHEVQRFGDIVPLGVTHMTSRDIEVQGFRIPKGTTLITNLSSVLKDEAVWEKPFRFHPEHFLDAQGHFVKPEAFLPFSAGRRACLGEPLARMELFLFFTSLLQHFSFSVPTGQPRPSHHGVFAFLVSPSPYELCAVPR
DA transporter, sequence (Q01959 whole entry, species assumed): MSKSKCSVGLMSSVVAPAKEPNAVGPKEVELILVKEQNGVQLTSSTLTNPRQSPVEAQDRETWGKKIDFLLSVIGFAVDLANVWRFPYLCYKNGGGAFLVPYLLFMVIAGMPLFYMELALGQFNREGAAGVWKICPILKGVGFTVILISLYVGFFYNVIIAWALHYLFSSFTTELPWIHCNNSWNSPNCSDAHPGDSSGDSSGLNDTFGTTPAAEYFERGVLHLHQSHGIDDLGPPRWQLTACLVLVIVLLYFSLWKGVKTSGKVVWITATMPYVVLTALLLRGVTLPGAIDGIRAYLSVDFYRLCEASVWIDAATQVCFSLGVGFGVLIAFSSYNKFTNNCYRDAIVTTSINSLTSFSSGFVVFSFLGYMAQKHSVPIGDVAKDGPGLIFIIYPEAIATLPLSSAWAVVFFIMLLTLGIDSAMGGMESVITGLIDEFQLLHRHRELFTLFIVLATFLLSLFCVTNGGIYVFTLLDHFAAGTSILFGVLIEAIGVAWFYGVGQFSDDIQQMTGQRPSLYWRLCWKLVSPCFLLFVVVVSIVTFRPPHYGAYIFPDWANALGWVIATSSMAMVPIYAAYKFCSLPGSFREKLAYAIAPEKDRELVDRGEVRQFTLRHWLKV

Q: For `CNC(=O)c1ccccc1Nc1nc(Nc2ccc3c(c2OC)CCC[C@H](N2CCN(CCO)CC2)C3)ncc1Cl` [CEP-37440, 2-[[5-chloro-2-[[(6S)-6-[4-(2-hydroxyethyl)piperazin-1-yl]-1-methoxy-6,7,8,9-tetrahydro-5H-benzo[7]annulen-2-yl]amino]pyrimidin-4-yl]amino]-N-methyl-benzamide], which Mouse bioavailability (Mouse bioavailability; CD-1 mouse, CEP-37440 as amorphous HCl salt) is on record?
A: 102%

Q: And the bioavailability (Mouse bioavailability; Scid, mouse, in vivo, po)?
A: 99%

Q: And the IC50 (CYP 2D6)?
A: > 30 µM

Q: And the Ki (DA transporter)?
A: 2.1 µM

Q: What about the Ki (Histamine H2) of the same compound?
A: 5.2 µM

Q: And the anti-tumor efficacy ([1]; 10 mg/kg or lower, bid, po)?
A: No significant anti-tumor activity

Q: And the anti-tumor efficacy ([1]; 30 mg/kg bid po)?
A: complete or near complete tumor regression

Q: And the anti-tumor efficacy ([1]; 30 mg/kg, qd, po)?
A: partial tumor regression

Q: And the anti-tumor efficacy ([1]; 55 mg/kg qd po)?
A: complete or near complete tumor regression

Q: And the “tolerability, body weight” value ([1]; all dosing regimens)?
A: well tolerated with no overt toxicity and no significant compound-related body weight loss

Q: And the “plasma level at 2 h post final dosing versus 2 h post single oral dose” value [1, 2]?
A: 2-3 fold

Q: What about the “tumor level at 2 h post final dosing versus 2 h post single oral dose” value [1, 2] of the same compound?
A: more than 10 fold
